In US6610310B2, “Polyanionic polymers as adjuvants for mucosal immunization” (priority 1996, dated 2003):

Legend:
Set-up in all cases: species or system mice
Settings in all cases: mouse, in vivo
[1] = tested on: influenza virus strain A/Texas
[2] = tested on: Newcastle Disease Virus (NDV) strain Lasota
[3] = tested on: influenza virus, strain MRC-11

Cholera toxin subunit B [CTB]
specific Ig-producing cells/10^6 cells 3 weeks following first immunization, mean; IgA in the lungs [1]: 961 cells/10^6 cells | anti-NDV Ig-producing cells/10^6 cells 3 weeks following immunization, mean; IgA in the spleen [2]: 84 cells/10^6 cells | anti-NDV Ig-producing cells/10^6 cells 3 weeks following immunization, mean; IgG in the lungs [2]: 10 cells/10^6 cells | anti-NDV Ig-producing cells/10^6 cells 3 weeks following immunization, mean; IgG in the spleen [2]: 8 cells/10^6 cells | anti-NDV Ig-producing cells/10^6 cells 6 weeks following immunization, mean; IgA in the lungs [2]: 23 cells/10^6 cells | anti-NDV Ig-producing cells/10^6 cells 3 weeks following immunization, mean; IgA in the lungs [3]: 82 cells/10^6 cells
